Measured values: the supplement of paper PMC10949913

What was measured:
Conditions in all cases: 48 h
[1] = test system: CU-ACC1; assay: AC50 viability; higher = less potent
In short: (§1)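 Three adrenocortical carcinoma cell lines were exposed for 48 h to library compounds at 11 concentrations in 1,536-well plates, then read by CellTiter-Glo luminescence. Signals were scaled per plate against vehicle and empty-well controls. From fitted concentration-response curves of inhibitory or non-responding classes alone, AC50 and area under the curve were obtained.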

[2] = test system: NCI-H295R; assay: AC50 viability; higher = less potent
In short: as §1

[3] = test system: CU-ACC1; assay: area under concentration-response curve (viability) (AUC (a.u.)); higher = less active
In short: as §1

[4] = test system: CU-ACC2; assay: as above
In short: as §1

[5] = test system: NCI-H295R; assay: as above
In short: as §1

Row | Structure (SMILES) | AC50 viability [1] [µM] | AC50 viability [2] [µM] | area under concentration-response curve [3] | area under concentration-response curve [4] | area under concentration-response curve [5]
1 | CC[C@@H](C)Nc1cc(C(=O)NC2CC3CCC(C2)N3c2ccc(C(=O)C3CC3)cn2)c(C)cc1C(N)=O (stereo not given in full) | 1.32 | 0.934 | 346 | 436 | 382
2 | CCOc1cc(CC(=O)N[C@@H](CC(C)C)c2ccccc2N2CCCCC2)ccc1C(=O)O | 0.0059 | 5.25 | 221 | 240 | 188
3 | Cn1cc(/C=C/C(=O)c2cccc(F)c2)cc1/C=C/C(=O)NO | 5.9 | 8.33 | 428 | 513 | 439
4 | NC(=O)c1ccc2[nH]c(-c3ccc(Oc4ccc(Cl)cc4)cc3)nc2c1 | 33.2 | 26.3 | 450 | 573 | 507
5 | CCCOc1ccc(CCc2nc3cc(-c4c(C)noc4C)ccc3n2CCN2CCOCC2)cc1 | 14.8 | 20.9 | 482 | 567 | 479
6 | Cc1nc(N)ncc1-c1nc(N2CCOCC2)c2sc(C(C)(C)O)cc2n1 | 8.33 | 4.68 | 333 | 488 | 475
7 | COc1cc(OC)cc(N(CCNC(C)C)c2ccc3ncc(-c4cnn(C)c4)nc3c2)c1 | 23.5 | 18.6 | 499 | 603 | 526
8 | N=C(N)c1ccc(OCCCCCOc2ccc(C(=N)N)cc2)cc1 | 13.2 | 14.8 | 437 | 561 | 453
9 | COc1cc(/C=C/C(=O)CC(=O)/C=C/c2ccc(O)c(OC)c2)ccc1O | 23.5 | 26.3 | 548 | 591 | 545
10 | C[C@H](NC(=O)c1sccc1OCc1ccc(Cl)cc1)c1ccccc1 | 10.5 | 20.9 | 456 | 571 | 504
11 | CC1(C)OCCn2c1nc1c(N3CCOCC3)nc(-c3cnc(N)nc3)nc12 | 1.18 | 1.86 | 395 | 500 | 430
12 | CNC(=O)c1cc(Oc2ccc(NC(=O)Nc3ccc(Cl)c(C(F)(F)F)c3)c(F)c2)ccn1 | 37.2 | 20.9 | 436 | 596 | 545
13 | COC(=O)Nc1ccc(-c2nc(N3CCOCC3)c3cnn(C4CCN(C(=O)OC)CC4)c3n2)cc1 | 2.95 | 2.95 | 399 | 573 | 485
14 | Cc1ccc([S+](=O)([O-])Cc2nc(-c3ccc(C(=O)NCc4cccnc4)cc3)oc2C)cc1 | 0.0742 | 0.263 | 290 | 402 | 379
15 | Cc1cc(C)c([S+](=O)([O-])N(CCc2cccc(Br)c2)Cc2ccc(-c3cccc([S+](C)(=O)[O-])c3)cc2)c(C)c1 | 0.833 | 7.42 | 412 | 417 | 442
16 | CC/1=C/C(=O)N(O)/C(=C1)C2CCCCC2 | 10.5 | 7.42 | 505 | 570 | 528
17 | CCN(CCO)CCCOc1ccc2c(Nc3cc(CC(=O)Nc4cccc(F)c4)[nH]n3)ncnc2c1 | 23.5 | 16.6 | 390 | 569 | 483
18 | O=C(/C=C\n1cnc(-c2cc(C(F)(F)F)cc(C(F)(F)F)c2)n1)N1CC(F)(F)C1 | 1.32 | 0.59 | 448 | 467 | 456
19 | COc1cc(C(=O)NC(=N)Nc2ccc(C)c(NC(=O)c3ccc(-c4ccccc4)cc3)c2)cc(OC)c1OC | 10.5 | 13.2 | 403 | 489 | 399
20 | Nc1n[n+]([O-])c2ccccc2[n+]1[O-] | 29.5 | 20.9 | 474 | 617 | 529
21 | CCN1C(=O)C\N=C/2N\C=C(/N=C12)C3=C(C)N=C(C=C3)C4=NN=C[NH]4 | 10.5 | 13.2 | 404 | 489 | 458
